According to ChEMBL document CHEMBL1156346, “Cytotoxic and novel compounds from Solanum indicum” (J Nat Prod, 2001):

System: OVCAR-3
Assay: Cytotoxicity against human OVCAR-3 cells
Format: functional, cell-based

With `C=C(C)[C@@H]1CC[C@@]2(C1)C(C)=CC(=O)C[C@H]2C` [SOLAVETIVONE] as the molecule, how does the IC50 read?
The IC50 was 100 µM.
